Measured values from patent US9133162B2, “Substituted quinoline compounds and methods of use” (SUNSHINE LAKE PHARMA CO., LTD., priority 2011, dated 2015).
Entries after “also recorded” stand apart in the source; their conditions may differ.

Key:
[1] = target: c-Met (h) (Homo sapiens (Human), UniProt P08581); experiment: c-Met (h) kinase assay (33P-ATP filter, Millipore); format: biochemical
[2] = target: KDR (h) (VEGF-R2(h)) (Homo sapiens (Human), UniProt P35968); experiment: KDR (h) (VEGF-R2(h)) kinase assay; format: biochemical
Chain of KDR (h) (VEGF-R2(h)) (P35968 20-1356): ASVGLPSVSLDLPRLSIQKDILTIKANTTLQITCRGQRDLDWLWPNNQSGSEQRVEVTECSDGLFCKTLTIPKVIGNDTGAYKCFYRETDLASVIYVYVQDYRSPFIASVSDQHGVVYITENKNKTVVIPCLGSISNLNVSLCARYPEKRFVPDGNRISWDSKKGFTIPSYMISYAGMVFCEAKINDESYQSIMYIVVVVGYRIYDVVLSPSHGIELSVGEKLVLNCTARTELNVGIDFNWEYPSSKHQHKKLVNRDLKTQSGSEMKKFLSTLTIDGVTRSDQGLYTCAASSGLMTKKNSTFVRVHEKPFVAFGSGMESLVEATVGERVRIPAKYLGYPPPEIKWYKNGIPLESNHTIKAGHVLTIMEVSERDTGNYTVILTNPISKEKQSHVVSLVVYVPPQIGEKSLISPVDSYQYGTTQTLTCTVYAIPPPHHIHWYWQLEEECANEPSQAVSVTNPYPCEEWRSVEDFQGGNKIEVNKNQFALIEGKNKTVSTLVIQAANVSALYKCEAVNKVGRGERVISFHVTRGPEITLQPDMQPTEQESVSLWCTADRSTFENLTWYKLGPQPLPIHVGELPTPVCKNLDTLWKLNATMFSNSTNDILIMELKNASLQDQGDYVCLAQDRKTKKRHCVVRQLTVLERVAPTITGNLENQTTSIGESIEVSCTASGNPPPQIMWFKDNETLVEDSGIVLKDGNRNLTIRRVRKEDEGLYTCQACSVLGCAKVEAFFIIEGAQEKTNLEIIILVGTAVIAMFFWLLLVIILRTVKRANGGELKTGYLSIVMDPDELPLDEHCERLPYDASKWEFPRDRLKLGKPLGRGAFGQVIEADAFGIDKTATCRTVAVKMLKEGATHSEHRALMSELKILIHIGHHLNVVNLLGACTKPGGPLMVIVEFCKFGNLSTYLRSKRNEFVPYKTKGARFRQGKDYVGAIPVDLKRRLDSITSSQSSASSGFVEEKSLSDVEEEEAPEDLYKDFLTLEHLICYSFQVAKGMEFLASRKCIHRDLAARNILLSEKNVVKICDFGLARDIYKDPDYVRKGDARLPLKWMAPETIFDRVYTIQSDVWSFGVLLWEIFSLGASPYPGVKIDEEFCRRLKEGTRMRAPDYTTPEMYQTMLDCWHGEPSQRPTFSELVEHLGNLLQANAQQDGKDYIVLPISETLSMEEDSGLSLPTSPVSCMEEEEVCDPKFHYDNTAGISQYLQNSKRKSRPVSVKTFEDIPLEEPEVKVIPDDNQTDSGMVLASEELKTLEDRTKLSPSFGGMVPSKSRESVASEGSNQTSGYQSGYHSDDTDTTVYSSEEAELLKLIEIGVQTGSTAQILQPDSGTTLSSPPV
Procedure: Kinase assays can be performed by measurement of incorporation of —^33P ATP into immobilized myelin basic protein (MBP). High binding white 384 well plates (Greiner) are coated with MBP (Sigma #M-1891) by incubation of 60 μl/well of 20 μg/ml MBP in Tris-buffered saline (TBS; 50 mM Tris pH 8.0, 138 mM NaCl, 2.7 mM KCl) for 24 hours at 4° C. Plates are washed 3× with 100 μl TBS. Kinase reactions are carried out in a total volume of 34 μl in kinase buffer (5 mM Hepes pH 7.6, 15 mM NaCl, 0.01% bovine gamma globulin (Sigma #I-5506), 10 mM MgCl2, 1 mM DTT, 0.02% TritonX-100). Compound dilutions are performed in DMSO and added to assay wells to a final DMSO concentration of 1%. Each data point is measured in duplicate, and at least two duplicate assays are performed for each individual compound determination. Enzyme is added to final concentrations of 10 nM or 20 nM, for example. A mixture of unlabeled ATP and —^33P ATP is added to start the reaction (2×10^6 cpm of —^33P ATP per well (3000 Ci/mmole) and 10 μM unlabeled ATP, typically. The reactions are carried out for 1 hour at room temperature with shaking. Plates are washed 7× with TBS, followed by the addition of 50 μl/well scintillation fluid (Wallac). Plates are read using a Wallac Trilux counter. This is only one format of such assays; various other formats are possible, as known to one skilled in the art.
The above assay procedure can be used to determine the IC50 for inhibition and/or the inhibition constant, Ki. The IC50 is defined as the concentration of compound required to reduce the enzyme activity by 50% under the condition of the assay. The IC50 value is estimated by preparing a 10 point curve using a log dilution series (for example, a typical curve may be prepared using the following compound concentrations; 100 μM, 30 μM, 10 μM, 3 μM, 1 μM, 0.3 μM, 0.1 μM, 0.03 μM, 0.01 μM and […]).
The kinase assays described herein were performed at Millipore UK Ltd, Dundee Technology Park, Dundee DD2 1SW, UK
KDR (h) (VEGF-R2(h)) Assay […]

[3] = target: Axl (h) (Homo sapiens (Human), UniProt P30530); experiment: Axl (h) kinase assay; format: biochemical
Chain of Axl (h) (P30530 26-894): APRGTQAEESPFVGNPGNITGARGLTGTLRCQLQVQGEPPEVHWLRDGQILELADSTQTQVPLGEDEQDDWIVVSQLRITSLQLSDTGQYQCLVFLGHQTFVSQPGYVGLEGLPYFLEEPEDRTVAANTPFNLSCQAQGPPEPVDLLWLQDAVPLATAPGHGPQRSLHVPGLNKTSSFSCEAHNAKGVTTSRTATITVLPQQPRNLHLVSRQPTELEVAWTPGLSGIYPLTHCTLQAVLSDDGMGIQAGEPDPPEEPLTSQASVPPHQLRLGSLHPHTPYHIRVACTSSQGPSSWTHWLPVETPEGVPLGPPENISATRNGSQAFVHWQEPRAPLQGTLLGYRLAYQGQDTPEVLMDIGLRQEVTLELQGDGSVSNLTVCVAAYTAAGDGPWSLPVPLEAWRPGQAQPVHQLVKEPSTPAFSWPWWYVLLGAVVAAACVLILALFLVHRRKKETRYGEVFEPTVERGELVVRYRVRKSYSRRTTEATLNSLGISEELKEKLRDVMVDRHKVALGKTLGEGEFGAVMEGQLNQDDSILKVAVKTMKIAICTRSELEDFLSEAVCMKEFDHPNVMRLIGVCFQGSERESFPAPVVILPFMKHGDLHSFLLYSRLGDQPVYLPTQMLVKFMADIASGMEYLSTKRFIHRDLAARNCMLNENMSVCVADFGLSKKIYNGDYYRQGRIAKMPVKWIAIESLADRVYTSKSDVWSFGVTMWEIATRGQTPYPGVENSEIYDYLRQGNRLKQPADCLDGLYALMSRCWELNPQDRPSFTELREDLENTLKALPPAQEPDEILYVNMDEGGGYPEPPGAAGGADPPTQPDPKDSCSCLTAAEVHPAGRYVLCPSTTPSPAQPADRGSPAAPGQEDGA
Procedure: Compound dilutions are performed in DMSO and added to assay wells to a final DMSO concentration of 1%. Each data point is measured in duplicate, and at least two duplicate assays are performed for each individual compound determination. Enzyme is added to final concentrations of 10 nM or 20 nM, for example.
The above assay procedure can be used to determine the IC50 for inhibition and/or the inhibition constant, Ki.
(specific activity approx. 500 cpm/pmol, concentration as required). The reaction is initiated by the addition of the MgATP mix. After incubation for 40 minutes at room temperature, the reaction is stopped by the addition of 3% phosphoric acid solution. 10 μL of the reaction is then spotted onto a P30 filtermat and washed three times for 5 minutes in 75 mM phosphoric acid and once in methanol prior to drying and scintillation counting.

[4] = target: c-Met (Homo sapiens (Human), UniProt P08581); experiment: cell-based
Chain of c-Met (P08581 25-1390): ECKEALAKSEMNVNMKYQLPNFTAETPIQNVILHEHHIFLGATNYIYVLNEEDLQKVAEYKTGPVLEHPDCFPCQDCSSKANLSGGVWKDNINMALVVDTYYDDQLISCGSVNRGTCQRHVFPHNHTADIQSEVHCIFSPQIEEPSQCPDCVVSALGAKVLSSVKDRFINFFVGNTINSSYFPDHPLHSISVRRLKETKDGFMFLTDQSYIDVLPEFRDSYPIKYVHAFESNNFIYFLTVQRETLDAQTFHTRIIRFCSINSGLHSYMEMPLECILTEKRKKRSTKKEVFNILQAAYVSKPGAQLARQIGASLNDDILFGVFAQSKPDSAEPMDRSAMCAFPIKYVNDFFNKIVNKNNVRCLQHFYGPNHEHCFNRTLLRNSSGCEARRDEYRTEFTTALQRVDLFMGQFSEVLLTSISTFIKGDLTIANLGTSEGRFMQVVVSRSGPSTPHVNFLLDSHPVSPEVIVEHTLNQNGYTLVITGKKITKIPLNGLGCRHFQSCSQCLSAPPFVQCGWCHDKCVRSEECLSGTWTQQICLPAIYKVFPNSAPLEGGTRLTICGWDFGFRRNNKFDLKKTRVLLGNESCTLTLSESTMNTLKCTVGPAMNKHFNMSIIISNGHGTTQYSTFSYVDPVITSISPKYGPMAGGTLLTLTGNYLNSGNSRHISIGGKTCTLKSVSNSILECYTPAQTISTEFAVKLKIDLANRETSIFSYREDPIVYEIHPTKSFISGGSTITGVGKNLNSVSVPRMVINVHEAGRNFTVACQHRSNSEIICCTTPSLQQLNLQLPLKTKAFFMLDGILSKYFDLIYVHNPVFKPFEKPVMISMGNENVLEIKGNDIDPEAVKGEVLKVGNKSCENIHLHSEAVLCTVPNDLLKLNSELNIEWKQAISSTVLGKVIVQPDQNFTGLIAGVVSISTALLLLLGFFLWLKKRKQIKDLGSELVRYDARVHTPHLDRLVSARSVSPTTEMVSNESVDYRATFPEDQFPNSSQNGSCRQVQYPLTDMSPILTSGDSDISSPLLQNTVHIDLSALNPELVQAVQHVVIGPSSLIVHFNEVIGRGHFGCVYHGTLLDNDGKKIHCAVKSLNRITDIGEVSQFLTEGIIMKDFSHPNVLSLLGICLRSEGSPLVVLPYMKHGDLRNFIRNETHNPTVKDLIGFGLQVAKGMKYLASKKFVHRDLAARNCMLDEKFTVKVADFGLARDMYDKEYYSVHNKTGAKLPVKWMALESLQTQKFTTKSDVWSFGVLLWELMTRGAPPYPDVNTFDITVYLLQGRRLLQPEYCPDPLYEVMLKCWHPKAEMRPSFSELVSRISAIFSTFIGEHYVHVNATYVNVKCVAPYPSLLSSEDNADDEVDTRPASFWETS
Procedure: The autophosphorylation level was determined Sandwich-ELISA technique. IC50 values are determined by testing 8 compound concentrations in semi-logarithmic steps (each concentration in duplicates). The steps of the cellular phosphorylation assay are illustrated in FIG. 1.
c-Met Phosphorylation Assay:
The human gastric adenocarcinoma cell line MKN45 is known to overexpress c-Met. c-Met overexpression results in a constitutive, ligand-independent autophosphorylation of the kinase. […] Phospho-MET signal is subsequently quantified by Sandwich-ELISA technique. The assay is validated based on known inhibitors of MET kinase activity.

[5] = target: human VEGF-R2 (Homo sapiens (Human), UniProt P35968); experiment: VEGF-R2 cellular phosphorylation assay in HUE cells (Sandwich-ELISA); format: cell-based; conditions: VEGF-A stimulated
Chain of human VEGF-R2 (P35968 20-1356): as the sequence (P35968 20-1356) above
Procedure: (§1) The autophosphorylation level was determined Sandwich-ELISA technique.
VEGF-R2 Phosphorylation Assay:
Immortalized human umbilical vein endothelial cells (HUE) are known to overexpress human VEGF-R2. Stimulation of these cells with its physiological ligand VEGF-A results in a robust receptor autophosphorylation. Compounds are preincubated before cell stimulation to allow thorough target binding. Stimulation conditions are optimized to determine dose-related inhibition of the phospho-VEGF-R2 signal, which is subsequently quantified by Sandwich-ELISA technique. The assay is validated based on known inhibitors of VEGF-R2 kinase activity.

[6] = target: AXL (Homo sapiens (Human), UniProt P30530); experiment: Axl cellular phosphorylation assay in transfected MEF cells (Sandwich-ELISA); format: cell-based; conditions: MEF cells expressing full-length AXL
Chain of AXL (P30530 26-894): as the sequence (P30530 26-894) above
Procedure: as §1
Axl Phosphorylation Assay:
Cellular AXL phosphorylation assay was generated on a mouse embryonal fibroblast (MEF) background. Cells were transfected to express a full-length AXL protein. […] PhosphoAXL levels are quantified by Sandwich-ELISA technique.

[7] = tested on: MKN45 Gastric Adenocarcinoma cells; experiment: MKN45 tumor xenograft model, TGI; format: in vivo, athymic nude mice; conditions: 20 mg/kg p.o. QD, 16 days
Procedure: (§2) The efficacy of compounds disclosed herein was evaluated in a standard murine model of tumorigenesis. Human tumor cells (U87MG glioblastoma cells, MKN45 Gastric Adenocarcinoma cells, Caki-1 renal carcinoma cells, HUH 7 hepatocarcinoma cells, NCI-H441 lung adenocarcinoma epithelial cells, MDA-MB-231 breast adenocarcinoma cells, SMMC-7721 hepatoma cells, all from ATCC) were expended in culture, harvested, and injected subcutaneously onto the rear flank of 6-7 week old female athymic nude mice (BALB/cA nu/nu, Shanghai SLAC Laboratory Animal, Co.) (n=10 for vehicle group, n=8 for each dosing group). When tumors reached a volume of 100-250 mm^3, animals were randomly divided into vehicle control (for example, 2% HPMC+1% Tween-80 in water) and compound groups. […]
(§3) Progression of tumor growth is assessed by tumor volumes and recorded as a function of time. The long (L) and short (W) axes of the subcutaneous tumors were measured with calipers twice weekly, and the tumor volume (TV) calculated as (L×W^2)/2). TGI was calculated from the difference between the median tumor volumes of vehicle-treated and drug-treated mice, expressed as a percentage of the median tumor volume of the vehicle-treated control group, by the following relation: […]

[8] = tested on: Caki-1 renal carcinoma cells; experiment: Caki-1 tumor xenograft model, TGI; format: in vivo, athymic nude mice; conditions: 20 mg/kg p.o. QD, 21 days
Procedure: as §2, §3

[9] = tested on: NCI-H441 lung adenocarcinoma epithelial cells; experiment: NCI-H441 tumor xenograft model, TGI; format: in vivo, athymic nude mice; conditions: 20 mg/kg p.o. QD, 21 days
Procedure: as §2, §3

[10] = tested on: HUH 7 hepatocarcinoma cells; experiment: Huh-7 tumor xenograft model, TGI; format: in vivo, athymic nude mice; conditions: 20 mg/kg p.o. QD, 14 days
Procedure: as §2, §3

[11] = tested on: U87MG glioblastoma cells; experiment: U87MG tumor xenograft model, TGI; format: in vivo, athymic nude mice; conditions: 10 mg/kg p.o. QD, 16 days
Procedure: as §2, §3

[12] = tested on: MDA-MB-231 breast adenocarcinoma cells; experiment: MDA-MB-231 tumor xenograft model, TGI; format: in vivo, athymic nude mice; conditions: for TGI % (on last day of dosing) MDA-MB-231: 21 days (Day 21); for inhibition of growth of MDA-MB-231 xenograft tumors (in words): 10, 20 and 40 mg/kg p.o. QD, 21 days
Procedure: The efficacy of compounds disclosed herein was evaluated in a standard murine model of tumorigenesis. Human tumor cells (U87MG glioblastoma cells, MKN45 Gastric Adenocarcinoma cells, Caki-1 renal carcinoma cells, HUH 7 hepatocarcinoma cells, NCI-H441 lung adenocarcinoma epithelial cells, MDA-MB-231 breast adenocarcinoma cells, SMMC-7721 hepatoma cells, all from ATCC) were expended in culture, harvested, and injected subcutaneously onto the rear flank of 6-7 week old female athymic nude mice (BALB/cA nu/nu, Shanghai SLAC Laboratory Animal, Co.) (n=10 for vehicle group, n=8 for each dosing group). When tumors reached a volume of 100-250 mm^3, animals were randomly divided into vehicle control (for example, 2% HPMC+1% Tween-80 in water) and compound groups. Subsequent administration of compound by oral gavage (for example, 3-50 mpk/dose, dissolved in 2% HPMC+1% Tween-80 in water) begins anywhere from day 0 to day 15 post tumor cell challenge and generally continues with once a day for the duration of the experiment. The studies using tumor xenograft animal models described herein were performed at Shanghai Institute of Materia Medica, Chinese Academy of Sciences, 555 Zu Chong Zhi Road, Zhang Jiang Hi-Tech Park, Pudong, Shanghai, 201203, China.
Progression of tumor growth is assessed by tumor volumes and recorded as a function of time. The long (L) and short (W) axes of the subcutaneous tumors were measured with calipers twice weekly, and the tumor volume (TV) calculated as (L×W^2)/2). TGI was calculated from the difference between the median tumor volumes of vehicle-treated and drug-treated mice, expressed as a percentage of the median tumor volume of the vehicle-treated control group, by the following relation:
Initial statistical analysis is done by repeated measures analysis of variance (RMANOVA). Followed by Scheffe psot hoc testing for multiple comparisons. Vehicle alone (2% HPMC+1% Tween-80, or the like) is the negative control.
FIG. 2 illustrates the tumor growth inhibition effects of Example 1 in MDA-MB-231 breast adenocarcinoma model. Example 1 was administrated orally (p.o.) at doses of 10, 20 and 40 mg/kg once a day (QD), for 21 consecutive days.
FIG. 3 illustrates the tumor growth inhibition effects of Example 2 in MDA-MB-231 breast adenocarcinoma model. Example 2 was administrated orally (p.o.) at doses of 10, 20 and 40 mg/kg once a day (QD), for 21 consecutive days.

Chain of c-Met (h) (P08581 25-1390): as the sequence (P08581 25-1390) above

Cc1c(C(=O)Nc2ccc(Oc3ccnc4cc(OCC(C)(C)O)ccc34)c(F)c2)c(=O)n(-c2ccccc2)n1C [Example 1, N-(3-fluoro-4-((7-(2-hydroxy-2-methylpropoxy)quinolin-4-yl)oxy)phenyl)-1,5-dimethyl-3-oxo-2-phenyl-2,3-dihydro-1H-pyrazole-4-carboxamide]
IC50 [1]: 19 nM
IC50 [2]: 37 nM
IC50 [3]: 11 nM
IC50 [4]: 6.9 nM
IC50 [5]: 1.7 nM
IC50 [6]: < 1 nM
TGI % (on last day of dosing) MKN45 [7]: 97%
TGI % (on last day of dosing) Caki-1 [8]: 87%
TGI % (on last day of dosing) NCI-H441 [9]: 97%
TGI % (on last day of dosing) Huh-7 [10]: 53%
TGI % (on last day of dosing) U87MG [11]: 98%
TGI % (on last day of dosing) MDA-MB-231 ([12]; 10 mg/kg p.o. QD): 97%
TGI % (on last day of dosing) MDA-MB-231 ([12]; 20 mg/kg p.o. QD): 112%
TGI % (on last day of dosing) MDA-MB-231 ([12]; 40 mg/kg p.o. QD): 120%
inhibition of growth of MDA-MB-231 xenograft tumors (in words) [12]: inhibited the growth; also recorded: statistically significant, dose-dependent inhibition

Cc1c(C(=O)Nc2ccc(Oc3ccnc4cc(OC[C@@H](C)O)ccc34)c(F)c2)c(=O)n(-c2ccccc2)n1C [Example 2, (R)—N-(3-fluoro-4-((7-(2-hydroxypropoxy)quinolin-4-yl)oxy)phenyl)-1,5-dimethyl-3-oxo-2-phenyl-2,3-dihydro-1H-pyrazole-4-carboxamide]
IC50 [1]: 7 nM
IC50 [2]: 23 nM
TGI % (on last day of dosing) MKN45 [7]: 22%
TGI % (on last day of dosing) MDA-MB-231 ([12]; 10 mg/kg p.o. QD): 72%
TGI % (on last day of dosing) MDA-MB-231 ([12]; 20 mg/kg p.o. QD): 87%
TGI % (on last day of dosing) MDA-MB-231 ([12]; 40 mg/kg p.o. QD): 96%
inhibition of growth of MDA-MB-231 xenograft tumors (in words) [12]: inhibited the growth; also recorded: statistically significant, dose-dependent inhibition

COc1cc2c(Oc3ccc(NC(=O)c4c(C)n(C)n(-c5ccccc5)c4=O)cc3F)ccnc2cc1OCC(C)(C)O [Example 4, N-(3-fluoro-4-((7-(2-hydroxy-2-methylpropoxy)-6-methoxyquinolin-4-yl)oxy)phenyl)-1,5-dimethyl-3-oxo-2-phenyl-2,3-dihydro-1H-pyrazole-4-carboxamide]
IC50 [1]: 10 nM
IC50 [2]: 40 nM

Cc1c(C(=O)Nc2ccc(Oc3ccnc4cc(OCC(C)(C)O)ccc34)cc2)c(=O)n(-c2ccccc2)n1C [Example 9, N-(4-((7-(2-hydroxy-2-methylpropoxy)quinolin-4-yl)oxy)phenyl)-1,5-dimethyl-3-oxo-2-phenyl-2,3-dihydro-1H-pyrazole-4-carboxamide]
IC50 [1]: 13 nM
TGI % (on last day of dosing) U87MG [11]: 97%

Cc1c(C(=O)Nc2ccc(Oc3ccnc4cc(OC[C@@H](C)O)ccc34)cc2)c(=O)n(-c2ccccc2)n1C [Example 11, (R)—N-(4-((7-(2-hydroxypropoxy)quinolin-4-yl)oxy)phenyl)-1,5-dimethyl-3-oxo-2-phenyl-2,3-dihydro-1H-pyrazole-4-carboxamide]
IC50 [1]: 15 nM

Cc1c(C(=O)Nc2ccc(Oc3ccnc4cc(OC[C@H](C)O)ccc34)cc2)c(=O)n(-c2ccccc2)n1C [Example 12, (S)—N-(4-((7-(2-hydroxypropoxy)quinolin-4-yl)oxy)phenyl)-1,5-dimethyl-3-oxo-2-phenyl-2,3-dihydro-1H-pyrazole-4-carboxamide]
IC50 [1]: 13 nM

Cc1c(C(=O)Nc2ccc(Oc3ccnc4cc(OC(C)(C)CO)ccc34)c(F)c2)c(=O)n(-c2ccccc2)n1C [Example 14, N-(3-fluoro-4-((7-((1-hydroxy-2-methylpropan-2-yl)oxy)quinolin-4-yl)oxy)phenyl)-1,5-dimethyl-3-oxo-2-phenyl-2,3-dihydro-1H-pyrazole-4-carboxamide]
IC50 [1]: 27 nM
